We go through 7 compounds from PubChem BioAssay (NCI).

Some test systems named below: A549 NSCLC; HS 578T breast; HT29 colon; OVCAR-4 ovarian; SF-268 CNS; SK-OV-3 ovarian; SN12C renal; TK-10 renal; UACC-257 melanoma; UACC-62 melanoma.
What all share (assay): growth of human tumour cells (NCI), 48 h

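Where inhibition never reached the appropriate level, the endpoint shown equals the highest concentration tested. Otherwise, values were interpolated linearly from a five-concentration, 48-hour dose response in 96-well plates. The concentration for full growth arrest is given as TGI.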 A value given as a limit tells only on which side of the number the result lay.

Regarding `Cc1ccc(NC(=O)C(=O)CC(=O)c2sc(Nc3c(C)cccc3C)nc2C)cc1C`, the TGI in the assay on A549 NSCLC, in the assay with HS 578T breast, with HT29 colon, in the assay with OVCAR-4 ovarian, in the assay on SF-268 CNS and with SK-OV-3 ovarian was > 100 µM each time. Further, the TGI with SN12C renal, with TK-10 renal, with UACC-257 melanoma and with UACC-62 melanoma was > 100 µM throughout.
`O=C(CCc1ccccc1)ON1C(=S)C(c2ccccc2)(c2ccccc2)N=C1Sc1ccccc1`: the TGI in the assay on A549 NSCLC, in the assay with HS 578T breast, in the assay on HT29 colon, with OVCAR-4 ovarian, in the assay on SF-268 CNS and in the assay with SK-OV-3 ovarian was > 100 µM each time. Also, the TGI with SN12C renal, in the assay with TK-10 renal, in the assay on UACC-257 melanoma and in the assay with UACC-62 melanoma was > 100 µM each time.
For `CCOC(=O)C1=C(C)N(c2ccc(OC)cc2)C2(O)C=CC(=O)C3=C(O)c4ccccc4C(=O)C312` (stereo not given), the TGI in the assay on A549 NSCLC was found to be 36.2 µM; with HS 578T breast, 33.5 µM; with HT29 colon it was 32.7 µM; in the assay on OVCAR-4 ovarian, 10.9 µM; with SF-268 CNS, 9.82 µM; with SK-OV-3 ovarian, 31.1 µM. The TGI came out at 30.2 µM in the assay on SN12C renal, 27.4 µM in the assay on TK-10 renal, 31.2 µM in the assay with UACC-257 melanoma and 26.4 µM with UACC-62 melanoma.
Consider `CC(C)C1N(C)c2ccc(Cl)cc2[C@H]2c3ccccc3CCN12` (stereo not given in full), for which the TGI in the assay with A549 NSCLC is > 100 µM; in the assay on HS 578T breast it was 82.1 µM; with HT29 colon, 90.7 µM; in the assay with OVCAR-4 ovarian, > 100 µM; in the assay with SF-268 CNS, > 100 µM; in the assay with SK-OV-3 ovarian, > 100 µM. In addition, the TGI in the assay with SN12C renal is > 100 µM; in the assay on TK-10 renal, > 100 µM; in the assay with UACC-257 melanoma it was 90.3 µM; with UACC-62 melanoma, > 100 µM.
In the case of `O=C1c2cn[nH]c2C(c2ccccc2)N1c1ccccc1` (stereo not given), the TGI in the assay on A549 NSCLC, in the assay on HS 578T breast, with HT29 colon, in the assay on OVCAR-4 ovarian, in the assay with SF-268 CNS and in the assay on SK-OV-3 ovarian was > 10 µM each time. The TGI in the assay with SN12C renal, in the assay with TK-10 renal, in the assay with UACC-257 melanoma and with UACC-62 melanoma was > 10 µM throughout.
As to `CC(=O)N1CCn2c1nc1cc(Cl)ccc12`, the TGI is > 100 µM with A549 NSCLC; > 100 µM in the assay with HS 578T breast; > 100 µM with HT29 colon; > 100 µM in the assay with OVCAR-4 ovarian; > 100 µM in the assay with SF-268 CNS; 68 µM in the assay with SK-OV-3 ovarian. Moreover, the TGI with SN12C renal, in the assay with TK-10 renal, with UACC-257 melanoma and in the assay on UACC-62 melanoma was > 100 µM each time.
For `C(=C\N1CCCCC1)/c1nnnn1-c1ccccc1`, the TGI is > 100 µM in the assay on A549 NSCLC; 49.4 µM with HS 578T breast; > 100 µM with HT29 colon; > 100 µM with OVCAR-4 ovarian; 84 µM in the assay on SF-268 CNS; 63.3 µM with SK-OV-3 ovarian. Further, the TGI is > 100 µM in the assay on SN12C renal, > 100 µM in the assay with TK-10 renal, > 100 µM in the assay with UACC-257 melanoma and 54.5 µM in the assay with UACC-62 melanoma.
